Test results as given in patent publication US9884854B2, “N-[(pyrimidinylamino)propanyl]-and N[(pyrazinylamino)proppanyl]arylcarboxamides” (Boehringer Ingelheim International GmbH, priority 2016, dated 2018).
Read-outs that look alike come from different tables or passages of the source.

How the values were obtained:
human MDR1 P-gp = test: Assay D: efflux in MDCK cells transfected with the human MDR1 gene; assay type: in vitro ADME, canine; conditions: dog; MDCK-MDR1 monolayers, pH 7.4, 37° C.; read-out: MDCK efflux ratio (BA/AB)
Protocol: The MDCK assay provides information on the potential of a compound to pass the blood brain barrier. Permeability measurements across polarized, confluent MDCK-MDR1 cell monolayers grown on permeable filter supports are used as an in vitro absorption model: apparent permeability coefficients (PE) of the compounds across the MDCK-MDR1 cell monolayers are measured (pH 7.4, 37° C.) in apical-to-basal (AB) and basal-to-apical (BA) transport direction. The AB permeability (PEAB) represents drug absorption from the blood into the brain and the BA permeability (PEBA) drug efflux from the brain back into the blood via both, passive permeability as well as active transport mechanisms mediated by efflux and uptake transporters that are expressed on the MDCK-MDR1 cells, predominantly by the overexpressed human MDR1 P-gp. Identical or similar permeabilities in both transport directions indicate passive permeation, vectorial permeability points to additional active transport mechanisms. Higher PEBA than PEAB (PEBA/PEAB>5) indicates the involvement of active efflux mediated by MDR1 P-gp, which might compromises the goal to achieve sufficient brain exposure. Therefore this assay provides valuable support for selection of compounds applicable for further in vivo testing. High permeability not limited by efflux at the blood brain barrier is a favourable characteristic for compounds that are to be used for drugs acting primarily in the CNS
D. Assessment of Efflux in Madin-Darby Canine Kidney (MDCK) Cells Transfected with the Human MDR1 Gene
Apparent permeability coefficients (PE) of the compounds across the MDCK-MDR1 cell monolayers are measured (pH 7.4, 37° C.) in apical-to-basal (AB) and basal-to-apical (BA) transport direction. AB permeability (PEAB) represents drug absorption from the blood into the brain and BA permeability (PEBA) drug efflux from the brain back into the blood via both passive permeability as well as active transport mechanisms mediated by efflux and uptake transporters that are expressed on the MDCK-MDR1 cells, predominantly by the overexpressed human MDR1 P-gp. The compounds are assigned to permeability/absorption classes by comparison of the AB permeabilities with the AB permeabilities of reference compounds with known in vitro permeability and oral absorption in the human. Identical or similar permeabilities in both transport directions indicate passive permeation, vectorial permeability points to additional active transport mechanisms. Higher PEBA than PEAB indicates the involvement of active efflux mediated by MDR1 P-gp. Active transport is concentration-dependently saturable.
MDCK-MDR1 cells (1-2×10e5 cells/1 cm2 area) are seeded on filter inserts (Costar transwell polycarbonate or PET filters, 0.4 μm pore size) and cultured (DMEM) for 7 days. Subsequently, the MDR1 expression is boosted by culturing the cells with 5 mM sodium butyrate in full medium for 2 days. Compounds are dissolved in appropriate solvent (like DMSO, 1-20 mM stock solutions). Stock solutions are diluted with HTP-4 buffer (128.13 mM NaCl, 5.36 mM KCl, 1 mM MgSO4, 1.8 mM CaCl2, 4.17 mM NaHCO3, 1.19 mM Na2HPO4×7H2O, 0.41 mM NaH2PO4×H2O, 15 mM HEPES, 20 mM glucose, 0.25% BSA, pH 7.4) to prepare the transport solutions (0.1-300 μM compound, final DMSO<=0.5%). The transport solution (TL) is applied to the apical or basolateral donor side for measuring A-B or B-A permeability (3 filter replicates), respectively. The receiver side contains the same buffer as the donor side. Samples are collected at the start and end of experiment from the donor and at various time intervals for up to 2 hours also from the receiver side for concentration measurement by HPLC-MS/MS or scintillation counting. Sampled receiver volumes are replaced with fresh receiver solution.

OX1R = target: T1, OX1R (Homo sapiens, UniProt O43613); conditions: cited from earlier work
T1 sequence (O43613 1-425): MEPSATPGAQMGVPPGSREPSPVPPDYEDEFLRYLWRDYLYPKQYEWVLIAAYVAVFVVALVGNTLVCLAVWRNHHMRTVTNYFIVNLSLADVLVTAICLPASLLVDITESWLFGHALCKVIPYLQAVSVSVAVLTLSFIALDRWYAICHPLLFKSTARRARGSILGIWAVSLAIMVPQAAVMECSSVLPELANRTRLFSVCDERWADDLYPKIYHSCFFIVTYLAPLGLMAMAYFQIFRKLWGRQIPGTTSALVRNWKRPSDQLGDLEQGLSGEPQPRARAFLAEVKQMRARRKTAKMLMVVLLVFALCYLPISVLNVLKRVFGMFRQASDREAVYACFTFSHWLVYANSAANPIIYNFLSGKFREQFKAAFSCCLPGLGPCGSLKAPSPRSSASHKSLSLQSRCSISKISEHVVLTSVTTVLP

OX2R = target: T2, OX2R (Homo sapiens, UniProt O43614); conditions: cited from earlier work
T2 sequence (O43614 1-444): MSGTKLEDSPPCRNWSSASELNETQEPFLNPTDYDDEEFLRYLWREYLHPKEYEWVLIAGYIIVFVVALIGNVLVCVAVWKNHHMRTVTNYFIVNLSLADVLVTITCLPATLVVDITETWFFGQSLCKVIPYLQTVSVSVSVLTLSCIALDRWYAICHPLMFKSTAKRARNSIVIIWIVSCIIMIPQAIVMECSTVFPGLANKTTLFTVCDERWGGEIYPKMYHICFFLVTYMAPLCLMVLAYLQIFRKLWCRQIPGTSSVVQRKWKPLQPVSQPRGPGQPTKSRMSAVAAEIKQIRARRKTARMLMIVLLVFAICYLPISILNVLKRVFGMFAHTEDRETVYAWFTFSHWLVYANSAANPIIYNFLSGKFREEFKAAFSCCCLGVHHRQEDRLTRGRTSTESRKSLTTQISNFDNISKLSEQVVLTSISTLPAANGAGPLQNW

human Orexin 1 receptor = target: T3, human Orexin 1 receptor (Homo sapiens, UniProt O43613); test: Assay A: OX1R IP1 (in vitro OX1R potency); assay type: cell-based
T3 construct: stably expressing the full-length human Orexin 1 receptor and the aequorin photoprotein; expressed in transfected cells; host or cells: CHO-K1 (CHO-K1/hOx1), co-expressing aequorin
T3 sequence (O43613 1-425): T1 sequence (O43613 1-425)
From the text: Activation of the orexin receptors expressed in cell lines results in an increase in intracellular IP3 concentration. IP1, a downstream metabolite of IP3, accumulates in cells following receptor activation and is stable in the presence of LiCl. Using Homogeneous Time-Resolved Fluorescence technology with Lumi4-Tb cryptate (commercially available from Cisbio Bioassay.) and a suitable fluorescence plate reader. […] This technique is used to characterize pharmacological modification of the orexin receptors.
A. In Vitro Testing of OX1R Potency: OX1R IP1
IP1 measurements are performed in CHO-K1 cells stably expressing the full-length human Orexin 1 receptor and the aequorin photoprotein. Cells are cultivated in Ham's nutrient mixture F12 medium with 10% fetal calf serum, in a 37° C., 95% humidity and 5% CO2 incubator. The CHO-K1/hOx1 cell mass is expanded to larger cell numbers. The cells are obtained as frozen cells in cryo-vials and stored until use at −150° C. […] In preparation for the assay, 24 hours before the assay, the cells are thawed at 37° C. and immediately diluted with cell culture medium. After centrifugation, the cell pellet is re-suspended in medium and then distributed into the assay plates with a density of 10000 cells/25 μL per well. The plates are incubated for one hour at room temperature to reduce edge effects before they are incubated for 24 hours at 37° C./5% CO2. Compounds are prepared by an 8-point serial dilution in DMSO and a final dilution step into assay buffer (HBSS with 20 mM HEPES, 0.1% BSA and 50 mM LiCl, pH 7.4) to ensure a final DMSO concentration of 1% in the assay.
On the day of the assay, cells in the plate are washed twice with 60 μL assay buffer (20 μL buffer remained in the wells after washing), followed by adding 5 μL per well of compounds diluted in assay buffer. After 15 minutes of incubation at room temperature 5 μL per well of Orexin A peptide (final concentration: 0.5 nM, and/or 50 nM) dissolved in assay buffer is added to the assay plate. The assay plate is incubated for 60 minutes at 37° C. Then 5 μl per well of Anti-IP1-Cryptate Tb solution and 5 μl per well of IP1-d2 dilution are added and the plate is incubated for a further 60 minutes light protected at room temperature. […] 8-point four parametric non-linear curve fitting and determination of IC50 values and Hill slopes is performed using a regular analysis software e.g. AssayExplorer (Accelrys).
Kb values from Assay A (OX1R) and Assay B (OX2R) can then provide a selectivity ratio which is independent of the agonist (Orexin A) concentration.

[1] = corresponds to pIC50, Table 3 of WO2016/034882

SMILES | efflux ratio (human MDR1 P-gp) | other results
CC[C@@H](CNc1cnc(C(F)(F)F)cn1)N(C)C(=O)c1cc(Cl)ccc1-n1nccn1 [Ex 40 in WO2016/034882, reference compound] | < 3 | OX2R IC50/OX1R IC50 (OX1R; Table 3 of WO2016/034882): Table 3: 156
CC[C@@H](CNc1ncc(C(F)(F)F)cn1)N(C)C(=O)c1nc(C)ccc1-n1nccn1 [Ex 46 in WO2016/034882] | < 3 | OX2R pIC50 (OX2R; Table 2 of WO2016/034882): < 5.0; OX2R pIC50 (OX2R; Table 3 of WO2016/034882): < 5.0; IC50 (OX2R; corresponds to pIC50, Table 2 of WO2016/034882): > 10 µM; IC50 (OX2R; [1]): ≥ 10 µM; OX2R IC50/OX1R IC50 (OX1R; Table 1 of WO2016/034882): 390; OX2R IC50/OX1R IC50 (OX1R; Table 2 of WO2016/034882): > 312; OX2R IC50/OX1R IC50 (OX1R; Table 3 of WO2016/034882): 3200
CC[C@@H](CNc1ncc(C(F)(F)F)cn1)N(CC)C(=O)c1nc(C)ccc1-n1nccn1 [Ex 73 in WO2016/034882] | – | OX2R pIC50 (OX2R; Table 3 of WO2016/034882): < 6.0; IC50 (OX2R; [1]): > 1 µM
CC[C@@H](CNc1ncc(C(F)(F)F)cn1)N(C)C(=O)c1nc(C)ccc1-c1ncccn1 [Ex 84 in WO2016/034882, reference compound] | < 3 | OX2R IC50/OX1R IC50 (OX1R; Table 3 of WO2016/034882): Table 3: 526
CC[C@@H](CNc1ncc(C(F)(F)F)cn1)N(C)C(=O)c1nc(C)ccc1-n1cccn1 [Ex 90 in WO2016/034882] | < 3 | OX2R pIC50 (OX2R; Table 3 of WO2016/034882): < 6.0; OX2R IC50/OX1R IC50 (OX1R; Table 3 of WO2016/034882): Table 3: >526
CC[C@@H](CNc1ncc(C(F)(F)F)cn1)N(C)C(=O)c1c(F)cccc1-n1nccn1 [Ex 91 in WO2016/034882] | < 3 | OX2R pIC50 (OX2R; Table 3 of WO2016/034882): < 5.1; IC50 (OX2R; [1]): ≥ 7.95 µM
CCN(C(=O)c1ccc(F)cc1-n1nccn1)[C@@H](C)CNc1ncc(C(F)(F)F)cn1 [Example 2] | < 3 | –
CCN(C(=O)c1ccc(F)c(F)c1-n1nccn1)[C@@H](C)CNc1ncc(C(F)(F)F)cn1 [Example 4] | < 3 | –
CCN(C(=O)c1cc(F)ccc1-n1nccn1)[C@@H](C)CNc1ncc(C(F)(F)F)cn1 [Example 5] | < 3 | –
CCN(C(=O)c1c(F)cccc1-n1nccn1)[C@@H](C)CNc1ncc(C(F)(F)F)cn1 [Example 7] | < 3 | more potent at OX1R (human Orexin 1 receptor; versus Example 91 in WO2016/034882): 25 fold
CCN(C(=O)c1cc(C#N)ccc1-n1nccn1)[C@@H](C)CNc1ncc(C(F)(F)F)cn1 [Example 8] | 3 to 5 | –
CCN(C(=O)c1cc(F)cnc1-n1nccn1)[C@@H](C)CNc1ncc(C(F)(F)F)cn1 [Example 10] | < 3 | –
CCN(C(=O)c1cccc(F)c1-c1ncccn1)[C@@H](C)CNc1ncc(C(F)(F)F)cn1 [Example 11] | 3 to 5 | –
CCN(C(=O)c1nc(C)ccc1-n1cccn1)[C@@H](C)CNc1ncc(C(F)(F)F)cn1 [Example 12] | < 3 | higher potency at OX1R (human Orexin 1 receptor; versus Example 90 in WO2016/034882): at least 3 fold
CCN(C(=O)c1c(F)cccc1-c1ncccn1)[C@@H](C)CNc1ncc(C(F)(F)F)cn1 [Example 13] | < 3 | –
CCN(C(=O)c1ccccc1-c1noc(C)n1)[C@@H](C)CNc1ncc(C(F)(F)F)cn1 [Example 14] | < 3 | –
CCN(C(=O)c1cc(F)ccc1-c1ncccn1)[C@@H](C)CNc1ncc(C(F)(F)F)cn1 [Example 15] | < 3 | –
CCN(C(=O)c1ccc(F)cc1-c1ncccn1)[C@@H](C)CNc1ncc(C(F)(F)F)cn1 [Example 16] | < 3 | –
CCN(C(=O)c1ncccc1-c1ccccc1)[C@@H](C)CNc1ncc(C(F)(F)F)cn1 [Example 19] | < 3 | –
CCN(C(=O)c1cncnc1-c1ccccc1)[C@@H](C)CNc1ncc(C(F)(F)F)cn1 [Example 20] | < 3 | –
CCN(C(=O)c1nccnc1-c1ccccc1)[C@@H](C)CNc1ncc(C(F)(F)F)cn1 [Example 21] | < 3 | –
CCN(C(=O)c1ccccc1-n1nccn1)[C@@H](C)CNc1cnc(C(F)(F)F)cn1 [Example 22] | 3 to 5 | –
CCN(C(=O)c1ccc(F)cc1-c1nnc(C)o1)[C@@H](C)CNc1cnc(C(F)(F)F)cn1 [Example 23] | 3 to 5 | –
CCN(C(=O)c1cccc(F)c1-n1nccn1)[C@@H](C)CNc1cnc(C(F)(F)F)cn1 [Example 24] | 3 to 5 | –
